How the values were obtained:
[1] = target: T1, Human farnesyl protein transferase (Homo sapiens, UniProt P49354+P49356); experiment: In Vitro Assay for Inhibition of Farnesyl Protein Transferase ([3H] Scintillation Proximity Assay); type: biochemical; settings: Table 7; human enzyme from KHOS cells; biotinylated lamin B peptide substrate; 60 min, 37° C.; read-out: IC50 (concentration of test compound producing 50% inhibition of enzyme activity)
T1 construct: were used as a source of human enzyme; endogenous in cells; host or cells: Kirsten virus transformed human osteosarcoma (KHOS) cells (ATCC), grown as monolayers or as solid tumors in nude mice; ammonium sulfate fraction and Q Sepharose pool
Experimental: In Vitro Assay for Inhibition of Farnesyl Protein Transferase Human farnesyl protein transferase was prepared essentially as described ([…] al., Methods: A Companion to Methods in Enzymology vol 1, 241-245, 1990). Kirsten virus transformed human osteosarcoma (KHOS) cells (American Type Culture Collection, Rockvill, Md., USA) grown as solid tumors in nude mice or grown as monolayer cell cultures were used as a source of human enzyme. Briefly, cells or tumors were homogenized in buffer containing 50 mM Tris, 1 mM EDTA, 1 mM EGTA and 0.2 mM phenylmethylsulfonylfluoride (pH 7.5). The homogenates were centrifuged 28,000× g for 60 min and the supernatants collected. A 30-50% ammonium sulfate […] prepared, and the resulting precipitate was resuspended in a small (10 to 20 ml) volume of dialysis buffer containing 20 mM Tris, 1 mM dithiothreitol and 20 μM ZnCl2. The ammonium sulfate fraction was dialyzed overnight against two changes of the same buffer. The dialyzed material was applied to a 10×1 cm Q Fast Flow Sepharose (Pharmacia LKB Biotechnology Inc., Piscataway, N.J., USA) which had been preequilibrated with 100 ml of dialysis buffer supplemented with 0.05M NaCl. The column was washed with an additional 50 ml of dialysis buffer plus 0.05M NaCl followed by a gradient from 0.05M to 0.25M NaCl prepared in dialysis buffer. The enzyme activity was eluted with a linear gradient of 0.25 to 1.0M NaCl prepared in the dialysis buffer. Fractions containing 4 to 5 ml volumes of column eluate were collected and analyzed for farnesyl protein transferase activity. Fractions with enzyme activity were pooled and supplemented with 100 μM ZnCl2. Enzyme samples were stored frozen at -70° C. The activity of farnesyl protein transferase was measured using the Farnesyl Transferase [^3 H] Scintillation Proximity Assay (Amersham International plc., England) under the conditions specified by the manufacturer. […] The reaction mixture was warmed to 37° C. The enzyme reaction was started by adding 20 μl of diluted human farnesyl protein transferase. […] Reactions were terminated by the addition of STOP/scintillation proximity bead reagent (Amersham). The reaction product [^3 H]-farnesyl-(Cys)-biotin lamin B peptide was captured on the streptavidin linked scintillation proximity bead. The amount of [^3 H]-farnesyl-(Cys)-biotin lamin B peptide synthesized in the presence or absence of test compounds was quantified as cpm by counting on a Wallac Model 1480 Microbeta Liquid Scintillation Counter. The cpm of product was considered to be farnesyl protein transferase activity. The protein farnesyl transferase activity observed in the presence of test compound was normalized to farnesyl transferase activity in the presence of 10% DMSO and expressed as per cent inhibition. […] W. Johnson Pharmaceutical Research Institue (Spring House, Pa., USA) on a VAX computer.

[2] = test system: NIH 3T3 cells transformed by the T24 activated human H-ras gene; experiment: Ras-Transformed Cell Phenotype Reversion Assay; type: cell-based, mouse; settings: NIH3T3; Table 8; T24 H-ras transformed NIH 3T3 cells; 72 hours; cell counts
Excerpt: "Ras-Transformed Cell Phenotype Reversion Assay" Insertion of activated oncogenes such as the mutant ras gene into mouse NIH 3T3 cells converts the cells to a transformed phenotype. The cells become tumorigenic, display anchorage independent growth in semi-solid medium and lose contact inhibition. Loss of contact inhibition produces cell cultures which no longer form uniform monolayers. Rather, the cells pile up into multicellular nodules and grow to very high saturation densities in plastic tissue culture dishes. Agents such as protein farnesyl transferase inhibitors which revert the ras transformed phenotype restore the uniform monolayer growth pattern to cells in culture. This reversion is easily monitored by counting the number of cells in tissue culture plates. Transformed cells will achieve higher cell numbers than cells which have reverted to an untransformed phenotype. Compounds which revert the transformed phenotype should produce antitumor effects in tumors bearing ras gene mutations. Method Compounds are screened in tissue culture in NIH 3T3 cells transformed by the T24 activated human H-ras gene. Cells are seeded at an initial density of 200,000 cells per well (9.6 cm^2 surface area) in six-well cluster tissue culture plates. Test compounds are immediately added to 3.0 ml cell growth mediuim in a 3.0 μl volume of DMSO, with a final concentration of DMSO in the cell growth medium of 0.1%. […] Then the cells are detached in 1.0 ml trypsin-EDTA cell dissociation medium and counted on a Coulter particle counter. Measurements Cell numbers expressed as cells per well are measured using a Coulter Particle Counter. All cell counts were corrected for the initial cell input density by subtracting 200,000. Control cell counts=[cell counts from cells incubated with DMSO vehicle--200,000] Test compound cell counts=[cell counts from cells incubated with test compound--200,000]. [formula]

IC50 [1] [nM] | SMILES | IC50 [2] [nM]
15 | O=c1cc(-c2cccc(Cl)c2)c2cc(C(c3ccc(Cl)cc3)n3ccnc3)ccc2[nH]1 (single isomer, unassigned) [Compound 23] | 204
30 | CCC(c1ccc(Cl)cc1)(c1ccc2c(c1)c(-c1cccc(Cl)c1)cc(=O)n2C)n1ccnc1 (stereo not shown) [Compound 63] | 294
11 | Cc1cncn1C(C)(c1ccc(Cl)cc1)c1ccc2c(c1)c(-c1cccc(Cl)c1)cc(=O)n2C (stereo not shown) [Compound 64, 4-(3-chlorophenyl)-6-[1-(4-chlorophenyl)-1-(5-methyl-1H-imidazol-1-yl)ethyl]-1-methyl-2(1H)-quinolinone] | 133
5.6 | Cn1c(=O)cc(-c2cccc(Cl)c2)c2cc(C(CO)(c3ccc(Cl)cc3)n3ccnc3)ccc21 (stereo not shown) [Compound 66] | 53
7.2 | COCCn1c(=O)cc(-c2cccc(Cl)c2)c2cc(C(c3ccc(Cl)cc3)n3ccnc3)ccc21 (stereo not shown) [Compound 77, 4-(3-chlorophenyl)-6-[(4-chlorophenyl)(1H-imidazol-1-yl)methyl]-1-(2-methoxyethyl)-2(1H)-quinolinone ethanedioate (2:3) monohydrate] | 189
3.4 | Cn1c(=O)cc(-c2ccc3c(c2)OCO3)c2cc(C(c3ccc(Cl)cc3)n3ccnc3)ccc21 (stereo not shown) [Compound 83, 6-[(4-chlorophenyl)(1H-imidazol-1-yl)methyl]-4-(1,3-benzodioxol-5-yl)-1-methyl-2(1H)-quinolinone ethanedioate (1:1)] | 68
 | Cc1cc(C(c2ccc(Cl)cc2)n2ccnc2)cc2c(-c3cccc(Cl)c3)cc(=O)n(C)c12 (stereo not shown) [Compound 89] | 445
